Assay results: paper PMC6222624, “Identification of Alkaloids from Corydalis yanhusuo W. T. Wang as Dopamine D1 Receptor Antagonists by Using CRE-Luciferase Reporter Gene Assay” (Molecules : A Journal of Synthetic Chemistry and Natural …, 2018)
Like-named read-outs stand apart in the source and are kept apart here.

Key:
dopamine D1 receptor = biological target: T1, dopamine D1 receptor (Homo sapiens, UniProt P21728); assay: CRE-luciferase reporter gene assay in HEK-D1/CRE/Luc2P cells; format: cell-based; conditions: for Emax / antagonist profile in luciferase reporter gene assay: dopamine 2 nM; for Emax: read-out: % Maximal Inhibition Mean ± SD (N = 3), Luciferase; for inhibition at 12.5 µM: single screening concentration 12.5 μM, read-out: inhibition in single-concentration screening (activity threshold); for antagonist profile in luciferase reporter gene assay: concentration-response, Figure 4A / Figure S3
T1 construct: Dopamine D1 receptor gene cloned in pcDNA 3.1 was kindly provided by Dr. Olivier Civelli; expressed in transfected cells
Source text: The cDNA plasmids of dopamine D1 receptor and CRE/Luci were stably co-transfected into human embryonic kidney-293 cells (HEK293) cells (HEK-D1/CRE/Luc2P). Activation of D1 receptors leads to the elevation of cAMP and activates the cAMP response element (CRE) and therefore induces the expression of the reporter gene luciferase. We used the natural ligand dopamine as a positive control to select the cell colony and to optimize and characterize the HEK-D1/CRE/Luc2P cell system.
(§1) The pGL4.29 (CRE/luc2P//Hygro) luciferase reporter gene was stably co-transfected with dopamine D1 receptor plasmid or was stably transfected individually in HEK293 cells. Transfection was carried out with lipofectamine 2000 reagent using the protocol provided by Promega. Stable cells expressing CRE-Luciferase and D1 receptor were selected in the presence of 700 μg/mL G418 and 200 μg/mL hygromycin for 10–14 days. Stable cells expressing CRE-Luciferase were singly selected in the presence of 200 μg/mL hygromycin. The obtained stable cells were then cultured with 350 μg/mL G418 and 100 μg/mL hygromycin or only 100 μg/mL hygromycin to maintain the selective growth.
(§2) The examination of CRE-luciferase activity was performed by a modification of methods as described previously. HEK293 stable cells were seeded in 96-well plates at a density of 1.5 × 10^4 cells per well. After cells became adherent, they were […] in serum-starved DMEM for different hours to explore the most suitable starving time. Cells were then pretreated with compounds for 1 h prior to dopamine stimulation. Afterwards, the cells were lysed with luciferase lysis buffer and the luminescence of the firefly luciferase was measured with the FlexStation 3 (Molecular Devices, Sunnyvale, CA, USA).
(§3) All statistical calculations were performed using GraphPad Prism 5.0 (GraphPad, Avenida, CA, USA). Data from each dose-response curve were normalized to the maximal stimulation by dopamine. At least three independent experiments were performed.

human D1 receptors = biological target: T2, human D1 receptors (Homo sapiens, UniProt P21728); assay: Fluorescent Ca2+ mobilization assay (FLIPR) in HEK 293T cells expressing D1 receptors and Gα15; format: cell-based; conditions: for antagonist profile in FLIPR assay: concentration-response, Figure 4B; for antagonist profile in FLIPR assay / % Maximal Inhibition Mean ± SD (N = 3), FLIPR: dopamine 500 nM
T2 construct: The cDNA plasmids of D1-like receptors were stably transfected into HEK 293T cells; expressed in transfected cells
Experimental: We used a fluorescent Ca^2+ mobilization assay to further evaluate the hit compounds obtained from the luciferase reporter gene assay screens. […] With the coexpression of Gα15 protein, D1 receptors can be redirected to mediate intracellular calcium mobilization upon stimulation. Calcium levels were monitored using fluorometric imaging plate reader (FLIPR). The assay can also distinguish potential antagonists from agonists.
Fluorescent Ca^2+ mobilization assay was performed using Flu-4 AM reagent as reported earlier.
as §3

HEK/CRE/Luc2P cells = assay: Specificity control: forskolin-stimulated CRE-luciferase response in HEK/CRE/Luc2P negative control cells; format: cell-based, human; conditions: for decrease of forskolin-stimulated response (cAMP levels): forskolin 1 μM, high doses of compound, Figure S2
Experimental: HEK293 cells stably expressing cDNA plasmid of CRE/Luciferase (HEK/CRE/Luc2P) were established as the negative control cells to test the specificity to the D1 receptor for the compounds.
as §1, §2

[1] = inhibition of dopamine (2 nM) response, HEK-D1/CRE/Luc2P cells, IC50 based on the degree of maximal inhibition, read-out: IC50 (μM) with 95% Confidence Intervals, Luciferase
[2] = inhibition of dopamine (500 nM) Ca2+ mobilization, HEK-D1/Gα15 cells, IC50 based on the degree of maximal inhibition, read-out: IC50 (μM) with 95% Confidence Intervals, FLIPR

T1 sequence (P21728 whole entry): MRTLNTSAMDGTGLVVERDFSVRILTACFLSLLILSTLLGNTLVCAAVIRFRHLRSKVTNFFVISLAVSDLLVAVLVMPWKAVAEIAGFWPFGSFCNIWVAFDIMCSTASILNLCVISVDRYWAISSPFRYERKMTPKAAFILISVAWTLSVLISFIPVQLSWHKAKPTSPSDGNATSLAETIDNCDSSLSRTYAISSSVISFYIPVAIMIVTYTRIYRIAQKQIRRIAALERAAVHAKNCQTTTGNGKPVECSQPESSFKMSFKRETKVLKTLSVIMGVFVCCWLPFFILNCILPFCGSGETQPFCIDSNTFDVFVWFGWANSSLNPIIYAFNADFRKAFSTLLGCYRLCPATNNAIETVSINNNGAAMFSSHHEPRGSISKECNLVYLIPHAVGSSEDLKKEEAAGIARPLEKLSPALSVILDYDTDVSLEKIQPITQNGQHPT
T2 sequence (P21728 whole entry): as above

SMILES	Emax (dopamine D1 receptor; HEK-D1/CRE/Luc2P cells) [%]	IC50 (dopamine D1 receptor; [1]) [µM]	inhibition at 12.5 µM (dopamine D1 receptor) [%]	% Maximal Inhibition Mean ± SD (N = 3), FLIPR (human D1 receptors; HEK-D1/Gα15 cells) [%]	IC50 (human D1 receptors; [2]) [µM]	antagonist profile in luciferase reporter gene assay (dopamine D1 receptor)	antagonist profile in FLIPR assay (human D1 receptors)	IC50 (dopamine D1 receptor) [µM]	IC50 (human D1 receptors) [µM]	EC50 (HEK/CRE/Luc2P cells; Homo sapiens, Figure S1, read-out: EC50 for increasing intracellular cAMP (CRE-luciferase)) [nM]	decrease of forskolin-stimulated response (cAMP levels) (HEK/CRE/Luc2P cells) [%]
COc1cc2c(cc1O)-c1cc3ccc(OC)c(OC)c3c[n+]1CC2 [Compound 9, Columbamine]	97.5 ± 0.218		≥ 50	86.43 ± 0.7188			concentration-dependent antagonist responses	1.21	3.4		
COc1cc2c(cc1OC)-c1c(C)c3ccc(OC)c(OC)c3c[n+]1CC2 [Compound 7, Dehydrocorydaline]	98.23 ± 0.33	1.29	≥ 50	90.61 ± 0.6541	1.53		concentration-dependent antagonist responses				
C=C[C@@]1(C)CC(=O)[C@]2(O)[C@@]3(C)[C@@H](O)CCC(C)(C)[C@@H]3[C@H](O)[C@H](OC(C)=O)[C@@]2(C)O1 [Forskolin, reference compound]										1200	
COc1cc2c(cc1OC)-c1c(C)c3ccc(O)c(OC)c3c[n+]1CC2 [Compound 5, 13-methyldehydrocorydalmine]	86 ± 1.76	10.3	≥ 50	77.04 ± 6.6410	3.08		concentration-dependent antagonist responses				25
COc1cc2c(cc1OC)-c1cc3ccc(OC)c(OC)c3c[n+]1CC2 [Compound 8, Palmatine]	93.86 ± 0.437		≥ 50				weak inhibitory effects	7.08			25

Continued, in another order:

Emax (dopamine D1 receptor; HEK-D1/CRE/Luc2P cells) [%]	IC50 (dopamine D1 receptor; [1]) [µM]	inhibition at 12.5 µM (dopamine D1 receptor) [%]	% Maximal Inhibition Mean ± SD (N = 3), FLIPR (human D1 receptors; HEK-D1/Gα15 cells) [%]	IC50 (human D1 receptors; [2]) [µM]	antagonist profile in luciferase reporter gene assay (dopamine D1 receptor)	SMILES	antagonist profile in FLIPR assay (human D1 receptors)	IC50 (dopamine D1 receptor) [µM]	IC50 (human D1 receptors) [µM]	EC50 (HEK/CRE/Luc2P cells; Homo sapiens, Figure S1, read-out: EC50 for increasing intracellular cAMP (CRE-luciferase)) [nM]	decrease of forskolin-stimulated response (cAMP levels) (HEK/CRE/Luc2P cells) [%]
97.52 ± 0.626	0.621	≥ 50	94.38 ± 0.1939	0.612		COc1cc2c(cc1O)CC[n+]1cc3c(OC)c(OC)ccc3c(C)c1-2 [Compound 6, Dehydrocorybulbine]	concentration-dependent antagonist responses				
72.5 ± 4	0.644	≥ 50	92.64 ± 1.7945	2.24	partial antagonist effects	COc1cc2c(cc1OC)[C@@H]1Cc3ccc(OC)c(OC)c3CN1CC2 [Compound 2, Tetrahydropalmatine]	concentration-dependent antagonist responses				
78.2 ± 1.78	13.4	≥ 50			partial antagonist effects	COc1cc2c(cc1O)C1Cc3ccc(OC)c(OC)c3C[N+]1(C)CC2 (stereo not shown) [Compound 10, N-methyltetrahydrocolumbamine]	weak inhibitory effects				
83.5 ± 1.45	2.46	≥ 50	90.32 ± 1.9817	3.36		COc1cc2c(cc1OC)[C@H]1[C@@H](C)c3ccc(OC)c(OC)c3CN1CC2 [Compound 4, Corydaline]	concentration-dependent antagonist responses				
